Results on 9 molecules are retold here after the NIST ThermoML archive (doi:10.1016/j.jct.2006.03.006).

Numbers after ± are expanded uncertainties.

The conditions of series [1]: Liquid; for mass density: 298.15 K, 101.33 kPa, Pycnometric method.
Series [2] is described as follows: refractive index (Na D-line) (dimensionless). Conditions: 298.15 K; 101.33 kPa; Liquid; Standard Abbe refractometry.

The term mass density denotes the mass of a sample divided by its volume. By vapor or sublimation pressure is commonly meant the equilibrium pressure above the liquid or solid. By refractive index is commonly meant the speed of light in vacuum divided by its phase velocity in the sample. Take `CC(C)CO` [2-methyl-1-propanol]: the mass density in series [1] was 797.8 ± 4.7 kg/m3. Further, the “vapor or sublimation pressure” value in series [1] (379.65 K) stood at 95.5 ± 5 kPa. Besides, in series [2], the refractive index is reported as 1.3939 ± 0.0012.

Turning to `CC(C)(C)O` [2-methylpropan-2-ol], the mass density in series [1] turned out to be 781.2 ± 4.5 kg/m3. For the same molecule, the “vapor or sublimation pressure” value in series [1] (354.15 K) stood at 95.5 ± 5 kPa. Besides, the refractive index in series [2] came out at 1.3852 ± 0.0012.

As to `Cc1cccc(O)c1` [3-methylphenol], the mass density in series [1] was found to be 1030 ± 7.7 kg/m3. Further, in series [1] (473.75 K), the “vapor or sublimation pressure” value is listed as 95.5 ± 5 kPa. Moreover, the refractive index in series [2] is recorded as 1.5395 ± 0.0012.

With `CCCCO` [butan-1-ol], the mass density in series [1] is 805.8 ± 4.8 kg/m3. Further, in series [1] (389.35 K), the “vapor or sublimation pressure” value came to 95.5 ± 5 kPa. In addition, in series [2], the refractive index was determined as 1.3974 ± 0.0012.

For the molecule `CCC(C)O` (configuration not stated) [butan-2-ol], in series [1], the mass density was found to be 802.4 ± 4.7 kg/m3. For the same molecule, the “vapor or sublimation pressure” value in series [1] (371.26 K) was 95.5 ± 5 kPa. For the same molecule, the refractive index in series [2] was determined as 1.3953 ± 0.0012.

On to `CCO` [ethanol], for which, in series [1], the mass density is listed as 784.9 ± 4.5 kg/m3. Also, the “vapor or sublimation pressure” value in series [1] (349.95 K) was determined as 95.5 ± 5 kPa. Further, the refractive index in series [2] was 1.3594 ± 0.0012.

With `CO` [methanol], the mass density in series [1] is 786.4 ± 4.6 kg/m3. In series [1] (336.25 K), the “vapor or sublimation pressure” value is 95.5 ± 5 kPa. Further, in series [2], the refractive index is listed as 1.3265 ± 0.0012.

In the case of `CCCO` [propan-1-ol], the mass density in series [1] is on record as 799.6 ± 4.7 kg/m3. Also, the “vapor or sublimation pressure” value in series [1] (368.85 K) is given as 95.5 ± 5 kPa. The refractive index in series [2] is recorded as 1.3837 ± 0.0012.

In the case of `CC(C)O` [propan-2-ol], the mass density in series [1] stood at 781.3 ± 4.5 kg/m3. Also, the “vapor or sublimation pressure” value in series [1] (355.05 K) amounted to 95.5 ± 5 kPa. In addition, the refractive index in series [2] came out at 1.3752 ± 0.0012.
